The target of data set [1] is T1, human NPFFR1 (hNPFFR1) receptor (Homo sapiens, UniProt Q9GZQ6).
T1 construct: expressed in transfected cells; host or cells: HEK-293 T cells, transient co-transfection with polyethylenimine
In words: Human NPFFR1 evaluation using BRET biosensors (antagonist IC50). It is filed as cell-based. The note with it: hNPFFR1 transiently over-expressed in HEK-293 T cells; BRET signal; stimulation by EC80 RFRP-3. In outline: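 HEK-293T cells co-transfected with receptor, GαoB and Gi-effector BRET biosensor pair, assayed 48 h later. Compound 10 min, then EC80 RFRP-3 with 10 min luminescence read; IC50 from 20-concentration variable-slope fit, duplicate, two independent experiments.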

What is called IC50 is the concentration that gives 50% inhibition. A high value points to a need for much substance. The melting point is the temperature, or range, at which the solid turns liquid.

Molecules are shown by their SMILES.

T1 sequence (Q9GZQ6 whole entry): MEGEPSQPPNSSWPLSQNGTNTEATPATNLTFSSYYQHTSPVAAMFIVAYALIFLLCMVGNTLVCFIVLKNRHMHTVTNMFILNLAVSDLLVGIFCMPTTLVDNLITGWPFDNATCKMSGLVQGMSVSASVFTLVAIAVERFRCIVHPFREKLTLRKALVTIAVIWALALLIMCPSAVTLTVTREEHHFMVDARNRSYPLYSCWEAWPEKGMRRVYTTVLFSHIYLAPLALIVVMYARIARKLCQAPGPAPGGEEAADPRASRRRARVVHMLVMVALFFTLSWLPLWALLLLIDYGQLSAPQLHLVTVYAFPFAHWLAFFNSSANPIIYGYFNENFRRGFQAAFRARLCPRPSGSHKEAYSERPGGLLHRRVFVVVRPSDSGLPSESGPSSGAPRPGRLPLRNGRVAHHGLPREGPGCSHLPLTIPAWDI

Turning to `CCc1nc(N)ccc1-c1cccc2ccc(N3CCC(F)(F)CC3)nc12.Cl` [Example 132, 5-(2-(4,4-difluoropiperidin-1-yl)quinolin-8-yl)-6-ethylpyridin-2-amine], the melting point was 120 to 141 °C. Besides, the IC50 in data set [1] is less than 100 nM.

`CCc1nc(N)ccc1-c1c(F)c(F)cc2ccc(O)nc12.Cl` [Example 161, 8-(6-amino-2-ethylpyridin-3-yl)-6,7-difluoroquinolin-2(1H)-one] registered a melting point greater than 250 °C. In data set [1], the IC50 lay in the range of 100 to 1000 nM.

`Cl.Nc1ccc(-c2cccc3c2OCC3)c(N)n1` [Example 28, 3-(2,3-Dihydrobenzofuran-7-yl)pyridine-2,6-diamine] came in with a melting point greater than 250 °C. In data set [1], the IC50 was 100 to 1000 nM.

`Cl.Nc1ccc(-c2cccc3ccoc23)c(N)n1` [Example 50, 3-(benzofuran-7-yl)pyridine-2,6-diamine]: the melting point was greater than 250 °C. Also, the IC50 in data set [1] lay within 100 to 1000 nM.

As for `CCc1nc(N)ccc1-c1cccc2cc3c(nc12)CCCC3.Cl` [Example 113, 6-ethyl-5-(5,6,7,8-tetrahydroacridin-4-yl)pyridin-2-amine], the melting point is 160 to 172 °C. Moreover, the IC50 in data set [1] is less than 100 nM.

The compound `CCc1nc(N)ccc1-c1c(C(F)(F)F)ccc2cccnc12.Cl` [Example 109, 6-ethyl-5-(7-(trifluoromethyl)quinolin-8-yl)pyridin-2-amine] returned a melting point of 150 to 180 °C. In data set [1], this compound returned an IC50 of less than 100 nM.

Turning to `CCc1nc(N)ccc1-c1cccc2c1NC(=O)C2.Cl` [Example 163, 7-(6-amino-2-ethylpyridin-3-yl)indolin-2-one], the melting point was greater than 250 °C. The IC50 in data set [1] is 100 to 1000 nM.

Compound `CCc1nc(N)ccc1-c1cccn2ccnc12.Cl` [Example 102, 6-ethyl-5-(imidazo[1,2-a]pyridin-8-yl)pyridin-2-amine] gave a melting point of 95 to 135 °C. In data set [1], this compound gave an IC50 greater than 1000 nM.

Take `Cl.Nc1ccc(-c2cccc3ccncc23)c(N)n1` [Example 32, 3-Isoquinolin-8-yl-pyridine-2,6-diamine]: the melting point lay within 77 to 88 °C. In data set [1], this compound gave an IC50 of less than 100 nM.

With `CCc1nc(N)ccc1-c1cccc2ccc(C3(C)CC3)nc12.Cl` [Example 120, 6-ethyl-5-(2-(1-methylcyclopropyl)quinolin-8-yl)pyridin-2-amine], the melting point was in the range of 90 to 95 °C. Moreover, the IC50 in data set [1] fell in the range of 100 to 1000 nM.

Turning to `Cl.Nc1ccc(-c2cccc3ccsc23)c(N)n1` [Example 29, 3-(Benzothiophen-7-yl)pyridine-2,6-diamine], the melting point fell in the range of 100 to 113 °C. The IC50 in data set [1] is 100 to 1000 nM.

In turn, `CCc1nc(N)ccc1-c1c(F)c(F)cc2cccnc12.Cl` [Example 111, 5-(6,7-difluoroquinolin-8-yl)-6-ethylpyridin-2-amine] displayed a melting point of 150 to 190 °C. Also, the IC50 in data set [1] is less than 100 nM.

As to `Nc1ccc(-c2cccc3cnccc23)c(N)n1` [Example 33, 3-(5-Isoquinolyl)pyridine-2,6-diamine], the melting point is greater than 250 °C. Besides, in data set [1], the IC50 was in the range of 100 to 1000 nM.

`Cl.Nc1ccc(-c2cccc3c2oc2ccccc23)c(N)n1` [Example 40, 3-Dibenzofuran-4-ylpyridine-2,6-diamine] returned a melting point of 135 to 143 °C. The half-inhibitory concentration (IC50) in data set [1] is less than 100 nM.

For the compound `CCc1nc(N)ccc1-c1cccc2ccc(-c3ccncc3)nc12.Cl` [Example 122, 6-ethyl-5-(2-(pyridin-4-yl)quinolin-8-yl)pyridin-2-amine], the melting point was greater than 250 °C. The IC50 in data set [1] was less than 100 nM.

`CCc1nc(N)ccc1-c1c(F)ccc2c1OC(C)(C)CC2.Cl` [Example 177, 6-ethyl-5-(7-fluoro-2,2-dimethylchroman-8-yl)pyridin-2-amine] came in with a melting point of 80 to 90 °C. Further, the IC50 in data set [1] is less than 100 nM.

For the compound `Cl.Nc1ccc(-c2csc3ccccc23)c(N)n1` [Example 21, 3-(Benzothiophen-3-yl)pyridine-2,6-diamine], the melting point lay in the range of 35 to 38 °C. Besides, the IC50 in data set [1] lay within 100 to 1000 nM.

Compound `Cl.Nc1ccc(-c2cccc3c2OCCC3)c(N)n1` [Example 37, 3-Chroman-8-yl-pyridine-2,6-diamine] yielded a melting point of 110 to 124 °C. The same compound registered an IC50 in data set [1] of less than 100 nM.

The compound `CCc1nc(N)ccc1-c1cccc2ccc(N3CCOCC3)nc12.Cl` [Example 129, 6-ethyl-5-(2-morpholinoquinolin-8-yl)pyridin-2-amine] came in with a melting point of 100 to 150 °C. Further, the IC50 in data set [1] was less than 100 nM.

Consider `Cl.Nc1ccc(-c2cccc3[nH]ccc23)c(N)n1` [Example 24, 3-(1H-Indol-4-yl)pyridine-2,6-diamine], for which the melting point was 150 to 154 °C. This compound also came in with an IC50 in data set [1] of 100 to 1000 nM.

`CCc1nc(N)ccc1-c1ccc(C(F)(F)F)c2cccnc12.Cl` [Example 75, 6-ethyl-5-(5-(trifluoromethyl)quinolin-8-yl)pyridin-2-amine]: the melting point lay in the range of 120 to 137 °C. The same compound showed an IC50 in data set [1] greater than 1000 nM.

Take `CCc1nc(N)ccc1-c1cccc2ccc(-c3cnccc3C)nc12.Cl` [Example 127, 6-ethyl-5-(2-(4-methylpyridin-3-yl)quinolin-8-yl)pyridin-2-amine]: the melting point is 180 to 188 °C. In data set [1], this compound displayed an IC50 of less than 100 nM.

In turn, `Cl.Nc1ccc(-c2cccc3c2OCCO3)c(N)n1` [Example 38, 3-(2,3-Dihydro-benzo[1,4]dioxin-5-yl)-pyridine-2,6-diamine] returned a melting point of 99 to 110 °C. This compound also registered an IC50 in data set [1] of 100 to 1000 nM.

For `CCc1nc(N)ccc1-c1cccc2ccc(C(=O)N3CCC(c4ccccc4)CC3)nc12.Cl` [Example 172, (8-(6-amino-2-ethylpyridin-3-yl)quinolin-2-yl)(4-phenylpiperidin-1-yl)methanone], the melting point is greater than 250 °C. The compound further yielded an IC50 in data set [1] of 100 to 1000 nM.

`CCc1nc(N)ccc1-c1cccc2ccc(C(=O)N(CC)C3CCCCC3)nc12.Cl` [Example 168, 8-(6-amino-2-ethylpyridin-3-yl)-N-cyclohexyl-N-ethylquinoline-2-carboxamide]: the melting point was in the range of 142 to 148 °C. The IC50 in data set [1] is less than 100 nM.

Compound `CCc1nc(N)ccc1-c1cccc2c1N(C)CC2.Cl` [Example 162, 6-ethyl-5-(1-methylindolin-7-yl)pyridin-2-amine] had a melting point greater than 250 °C. For the same compound, in data set [1], the IC50 was in the range of 100 to 1000 nM.

The compound `Cl.Nc1ccc(-c2csc3ccccc23)c(C2CC2)n1` [Example 13, 5-Benzo[b]thiophen-3-yl-6-cyclopropyl-pyridin-2-ylamine] came in with a melting point of 210 to 220 °C. Also, the IC50 in data set [1] fell in the range of 100 to 1000 nM.

Consider `Cl.Nc1ccc(-c2ccccc2-c2ccc(N3CCOCC3)nc2)c(N)n1` [Example 46, 3-[2-(6-morpholino-3-pyridyl)phenyl]pyridine-2,6-diamine], for which the melting point lay within 180 to 210 °C. The IC50 in data set [1] is less than 100 nM.

The compound `CCc1nc(N)ccc1-c1ccccc1-c1ccc(C(F)(F)F)nc1.Cl` [Example 81, 6-ethyl-5-(2-(6-(trifluoromethyl)pyridin-3-yl)phenyl)pyridin-2-amine] had a melting point greater than 250 °C. In data set [1], this compound yielded an IC50 of 100 to 1000 nM.

`CCc1nc(N)ccc1-c1ccc(F)cc1-c1ccc(N2CCOCC2)nc1.Cl` [Example 82, 6-ethyl-5-(4-fluoro-2-(6-morpholinopyridin-3-yl)phenyl)pyridin-2-amine] returned a melting point of 54 to 70 °C. Also, the IC50 in data set [1] was 100 to 1000 nM.

The compound `CCc1nc(N)ccc1-c1cccc2ccc(C(=O)N3CC4CCC(C3)O4)nc12.Cl` [Example 171, (8-(6-amino-2-ethylpyridin-3-yl)quinolin-2-yl)(8-oxa-3-azabicyclo[3.2.1]octan-3-yl)methanone] came in with a melting point of 150 to 160 °C. In data set [1], this compound yielded an IC50 of less than 100 nM.

Consider `Cl.Nc1ccc(-c2ccc(C(F)(F)F)c3cccnc23)c(N)n1` [Example 54, 3-(5-(trifluoromethyl)quinolin-8-yl)pyridine-2,6-diamine], for which the melting point was greater than 250 °C. In data set [1], this compound yielded an IC50 greater than 1000 nM.

As to `CCc1nc(N)ccc1-c1cccc2ccc(-c3cnccn3)nc12.Cl` [Example 126, 6-ethyl-5-(2-(pyrazin-2-yl)quinolin-8-yl)pyridin-2-amine], the melting point is greater than 250 °C. The same compound gave an IC50 in data set [1] of less than 100 nM.

`Cn1cc(-c2ccc(N)nc2N)c2ccccc21` [Example 16, 3-(1-Methylindol-3-yl)pyridine-2,6-diamine] came in with a melting point of 47 to 55 °C. The same compound showed an IC50 in data set [1] greater than 1000 nM.

On to `CCc1nc(N)ccc1-c1c(F)cc(F)c2cccnc12.Cl` [Example 108, 5-(5,7-difluoroquinolin-8-yl)-6-ethylpyridin-2-amine], for which the melting point was 126 to 136 °C. The IC50 in data set [1] was less than 100 nM.

In turn, `CCc1nc(N)ccc1-c1cccc2ccc(C(=O)NCc3ccccc3)nc12.Cl` [Example 174, 8-(6-amino-2-ethylpyridin-3-yl)-N-benzylquinoline-2-carboxamide] showed a melting point of 102 to 114 °C. The IC50 in data set [1] is less than 100 nM.

`CCc1nc(N)ccc1-c1ccccc1-c1ccc(OC)nc1` [Example 89, 6-ethyl-5-(2-(6-methoxypyridin-3-yl)phenyl)pyridin-2-amine] gave a melting point of 165 to 180 °C. In addition, the IC50 in data set [1] fell in the range of 100 to 1000 nM.

The compound `CCc1nc(N)ccc1-c1cccc2ccc(COC)nc12.Cl` [Example 142, 6-ethyl-5-(2-(methoxymethyl)quinolin-8-yl)pyridin-2-amine] registered a melting point of 210 to 225 °C. This compound also had an IC50 in data set [1] of less than 100 nM.

For `Nc1ccc(-c2csc3ccc(F)cc23)c(N)n1` [Example 22, 3-(5-Fluoro-benzo[b]thiophen-3-yl)pyridine-2,6-diamine], the melting point fell in the range of 116 to 118 °C. In data set [1], this compound showed an IC50 of 100 to 1000 nM.

The values above are taken from patent publication US20220298135A1, “5-HETEROARYL-PYRIDIN-2-AMINE COMPOUNDS AS NEUROPEPTIDE FF RECEPTOR ANTAGONISTS” (Domain Therapeutics, priority 2019, published 2022).
